As a reminder, the IC50 is the point on the concentration scale where inhibition reaches its midpoint.

SMILES strings stand for the structures.

The results in this text go back to US10189839B2, “Tricyclic imidazole compounds as inhibitors of tryptophan hydroxylase” (ACTELION PHARMACEUTICALS LTD, priority 2013, dated 2019).

The target in the first experiment is T1, full length human TPH1 (Homo sapiens, UniProt P17752).
T1 construct: To generate the enzyme, full length human TPH1 is cloned into the plasmid pET20b(+); made in house; host or cells: E. coli
T1 sequence (P17752 1-444): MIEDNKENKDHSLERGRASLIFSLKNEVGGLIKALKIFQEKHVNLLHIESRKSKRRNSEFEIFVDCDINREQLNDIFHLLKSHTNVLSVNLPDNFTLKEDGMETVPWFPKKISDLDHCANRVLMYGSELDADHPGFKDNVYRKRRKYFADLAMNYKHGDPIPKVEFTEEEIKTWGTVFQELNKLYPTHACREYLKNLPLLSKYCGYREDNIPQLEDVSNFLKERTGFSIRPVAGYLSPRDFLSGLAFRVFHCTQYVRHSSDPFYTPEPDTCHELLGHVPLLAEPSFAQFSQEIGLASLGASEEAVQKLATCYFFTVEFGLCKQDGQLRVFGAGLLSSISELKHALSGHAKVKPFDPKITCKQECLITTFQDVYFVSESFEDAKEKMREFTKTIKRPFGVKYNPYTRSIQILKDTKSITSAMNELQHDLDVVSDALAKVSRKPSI
Nature of the experiment: Biochemical in vitro assay using fluorescence readout (TPH1 enzyme activity). To be noted: Table 1, mean where determined several times. A digest of the protocol:
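E. coli-expressed full-length human TPH1 (40-80 nM), affinity- and size-exclusion-purified, incubated 60 min at 15° C. in 0.1M Tris-HCl pH 7.6 with 1 mM DTT, 0.2 mg/ml catalase, 100 μM 6-methyltetrahydropterine and 40 μM L-tryptophan. 5-Hydroxy-L-tryptophan read by fluorescence (ex 300/em 540 nm) after HClO4 quench; IC50 versus vehicle, mean where repeated.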
`CC(=O)N1CCn2c(nc3c2C(c2ncc(C4CC4)cc2F)N(C(=O)COc2cc(F)c(N4CCOCC4)nc2Cl)CC3)C1` (centres unmarked) [Example 5.4.9, 1-(7-acetyl-1-(5-cyclopropyl-3-fluoropyridin-2-yl)-3,4,6,7,8,9-hexahydropyrido[4′,3′:4,5]imidazo[1,2-a]pyrazin-2(1H)-yl)-2-((2-chloro-5-fluoro-6-morpholinopyridin-3-yl)oxy)ethanone] had an IC50 of 15 nM.

`COC(=O)c1csc(C2c3c(nc4n3CCN(C(C)=O)C4)CCN2C(=O)COc2ccc(N3CCOCC3)nc2Cl)c1` (centres unmarked) [Example 5.5.1, methyl 5-(7-acetyl-2-(2-((2-chloro-6-morpholinopyridin-3-yl)oxy)acetyl)-1,2,3,4,6,7,8,9-octahydropyrido[4′,3′:4,5]imidazo[1,2-a]pyrazin-1-yl)thiophene-3-carboxylate] displayed a half-maximal inhibitory concentration (IC50) of 5 nM. As for `CN(C)c1ncc(C2c3c(nc4n3CCNC4)CCN2C(=O)COc2ccc(N3CCOCC3)nc2Cl)s1` (centres unmarked) [Example 5.6.1, 2-((2-chloro-6-morpholinopyridin-3-yl)oxy)-1-(1-(2-(dimethylamino)thiazol-5-yl)-3,4,6,7,8,9-hexahydropyrido[4′,3′:4,5]imidazo[1,2-a]pyrazin-2(1H)-yl)ethanone], it took 415 nM to reach half-maximal inhibition (IC50). In the case of `CC(=O)N1CCn2c(nc3c2C(c2cnc(N(C)C)s2)N(C(=O)COc2ccc(N4CCOCC4)nc2Cl)CC3)C1` (centres unmarked) [Example 5.6.2, 1-(7-acetyl-1-(2-(dimethylamino)thiazol-5-yl)-3,4,6,7,8,9-hexahydropyrido[4′,3′:4,5]imidazo[1,2-a]pyrazin-2(1H)-yl)-2-((2-chloro-6-morpholinopyridin-3-yl)oxy)ethanone], it took 37 nM to reach half-maximal inhibition (IC50). Still for that read-out and setting: the result for `CC(=O)N1CCn2c(nc3c2C(c2sc(C(=O)N(C)C)cc2F)N(C(=O)COc2ccc(C(=O)N(C)C)nc2Cl)CC3)C1` (centres unmarked) [Example 5.7.1, 5-(2-(7-acetyl-1-(5-(dimethylcarbamoyl)-3-fluorothiophen-2-yl)-3,4,6,7,8,9-hexahydropyrido[4′,3′:4,5]imidazo[1,2-a]pyrazin-2(1H)-yl)-2-oxoethoxy)-6-chloro-N,N-dimethylpicolinamide] reads 27 nM. The same measure, in the same setting: the result for `CC(=O)N1CCn2c(nc3c2C(c2sc(C(=O)N(C)C)cc2F)N(C(=O)COc2ccc(N4CCOCC4)nc2Cl)CC3)C1` (centres unmarked) [Example 5.7.2, 5-(7-acetyl-2-(2-((2-chloro-6-morpholinopyridin-3-yl)oxy)acetyl)-1,2,3,4,6,7,8,9-octahydropyrido[4′,3′:4,5]imidazo[1,2-a]pyrazin-1-yl)-4-fluoro-N,N-dimethylthiophene-2-carboxamide] reads 6 nM; that for `CC(=O)N1CCn2c(nc3c2C(c2ncc(C)cc2F)N(C(=O)COc2ccc(N4CCOCC4)nc2Cl)CC3)C1` (centres unmarked) [Example 5.8.1, 1-(7-acetyl-1-(3-fluoro-5-methylpyridin-2-yl)-3,4,6,7,8,9-hexahydropyrido[4′,3′:4,5]imidazo[1,2-a]pyrazin-2(1H)-yl)-2-((2-chloro-6-morpholinopyridin-3-yl)oxy)ethanone], 11 nM.

In the case of `CC(=O)N1CCn2c(nc3c2C(c2ncc(C)cc2F)N(C(=O)COc2ccc(N4CC(F)(F)C4)nc2Cl)CC3)C1` (centres unmarked) [Example 5.8.2, 1-(7-acetyl-1-(3-fluoro-5-methylpyridin-2-yl)-3,4,6,7,8,9-hexahydropyrido[4′,3′:4,5]imidazo[1,2-a]pyrazin-2(1H)-yl)-2-((2-chloro-6-(3,3-difluoroazetidin-1-yl)pyridin-3-yl)oxy)ethanone], the IC50 turned out to be 51 nM. The same measure, in the same setting: the result for `CC(=O)N1CCn2c(nc3c2C(c2ncc(Cl)cc2F)N(C(=O)COc2ccc(N4CCOCC4)nc2Cl)CC3)C1` (centres unmarked) [Example 5.9.1, 1-(7-acetyl-1-(5-chloro-3-fluoropyridin-2-yl)-3,4,6,7,8,9-hexahydropyrido[4′,3′:4,5]imidazo[1,2-a]pyrazin-2(1H)-yl)-2-((2-chloro-6-morpholinopyridin-3-yl)oxy)ethanone] reads 8 nM. The same measure, in the same setting: the result for `CC(=O)N1CCn2c(nc3c2C(c2ncccc2F)N(C(=O)COc2ccc(N4CCOCC4)nc2Cl)CC3)C1` (centres unmarked) [Example 5.10.1, 1-(7-acetyl-1-(3-fluoropyridin-2-yl)-3,4,6,7,8,9-hexahydropyrido[4′,3′:4,5]imidazo[1,2-a]pyrazin-2(1H)-yl)-2-((2-chloro-6-morpholinopyridin-3-yl)oxy)ethanone] reads 14 nM. The same measure, in the same setting: the result for `CCNC(=O)Nc1nc(C2c3c(nc4n3CCN(C(C)=O)C4)CCN2C(=O)COc2ccc(N3CCOCC3)nc2Cl)cs1` (centres unmarked) [Example 5.11.1, 1-(4-(7-acetyl-2-(2-((2-chloro-6-morpholinopyridin-3-yl)oxy)acetyl)-1,2,3,4,6,7,8,9-octahydropyrido[4′,3′:4,5]imidazo[1,2-a]pyrazin-1-yl)thiazol-2-yl)-3-ethylurea] reads 100 nM; that for `Cc1ccc(C2c3c(nc4n3CCN(C(=O)OC(C)(C)C)C4)CCN2C(=O)COc2ccc(CN3CCOCC3)cc2Cl)c(F)c1` (centres unmarked) [Example 5.12.1, tert-butyl 2-(2-(2-chloro-4-(morpholinomethyl)phenoxy)acetyl)-1-(2-fluoro-4-methylphenyl)-1,2,3,4,8,9-hexahydropyrido[4′,3′:4,5]imidazo[1,2-a]pyrazine-7(6H)-carboxylate], 310 nM. In turn, `Cc1ccc(C2c3c(nc4n3CCNC4)CCN2C(=O)COc2ccc(CN3CCOCC3)cc2Cl)c(F)c1` (centres unmarked) [Example 5.12.2, 2-(2-chloro-4-(morpholinomethyl)phenoxy)-1-(1-(2-fluoro-4-methylphenyl)-3,4,6,7,8,9-hexahydropyrido[4′,3′:4,5]imidazo[1,2-a]pyrazin-2(1H)-yl)ethanone] showed an IC50 of 52 nM. The same measure, in the same setting: the result for `CC(=O)N1CCn2c(nc3c2C(c2ccc(C)cc2F)N(C(=O)COc2ccc(CN4CCOCC4)cc2Cl)CC3)C1` (centres unmarked) [Example 5.12.3, 1-(7-acetyl-1-(2-fluoro-4-methylphenyl)-3,4,6,7,8,9-hexahydropyrido[4′,3′:4,5]imidazo[1,2-a]pyrazin-2(1H)-yl)-2-(2-chloro-4-(morpholinomethyl)phenoxy)ethanone] reads 15 nM; that for `CC(=O)N1CCn2c(nc3c2C(c2sccc2F)N(C(=O)COc2ccc(N4CCOCC4)nc2Cl)CC3)C1` (centres unmarked) [Example 5.13.1, 1-(7-acetyl-1-(3-fluorothiophen-2-yl)-3,4,6,7,8,9-hexahydropyrido[4′,3′:4,5]imidazo[1,2-a]pyrazin-2(1H)-yl)-2-((2-chloro-6-morpholinopyridin-3-yl)oxy)ethanone], 6 nM.

Regarding `CC(=O)N1CCn2c(nc3c2C(c2sccc2F)N(C(=O)COc2ccc(C(=O)N(C)C)nc2Cl)CC3)C1` (centres unmarked) [Example 5.13.2, 5-(2-(7-acetyl-1-(3-fluorothiophen-2-yl)-3,4,6,7,8,9-hexahydropyrido[4′,3′:4,5]imidazo[1,2-a]pyrazin-2(1H)-yl)-2-oxoethoxy)-6-chloro-N,N-dimethylpicolinamide], the IC50 came to 24 nM.

Still in this experiment, the particulars now being: Table 2.
For `CC(C)(C)OC(=O)N1CCn2c(nc3c2C(c2cc(C(=O)NC#N)cs2)N(C(=O)COc2ccc(N4CCOCC4)nc2Cl)CC3)C1` (centres unmarked) [Example 5.14.1, Tert-butyl 2-(2-((2-chloro-6-morpholinopyridin-3-yl)oxy)acetyl)-1-(4-(cyanocarbamoyl)thiophen-2-yl)-1,2,3,4,8,9-hexahydropyrido[4′,3′:4,5]imidazo[1,2-a]pyrazine-7(6H)-carboxylate], inhibition was half-maximal at 341 nM (IC50).
